Holding throughout (format): in vivo
Holding throughout (settings): 250 g/ha, evaluated after 13 days, five-point scale

In assay [1] the test system is AMAPA. Description: Post-emergence herbicidal glasshouse test.
Assay [2] deals with IPOHE. Put plainly: Post-emergence herbicidal glasshouse test. An outline of the steps:
(§1)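 Herbicidal damage was rated as percentage, banded into a 1–5 scale, 13 days after application. Plants received 250 g/ha unless otherwise stated, sprayed pre-emergence (1 day after sowing) or post-emergence (8 days after sowing), and grew at 24/16° C with 14 h light.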

The subject of assay [3] is Setaria faberi (SETFA). Description: Post-emergence herbicidal glasshouse test. The essentials: as §1
Assay [4] concerns Amaranthus retoflexus (AMARE). Put plainly: Post-emergence herbicidal glasshouse test. The essentials: as §1
Assay [5] concerns Echinochloa crus-galli (ECHCG). Description: Post-emergence herbicidal glasshouse test. The essentials:
as §1

Assay [6] relates to AMAPA. Description: Pre-emergence herbicidal glasshouse test.
Assay [7] concerns IPOHE. Put plainly: Pre-emergence herbicidal glasshouse test. An outline of the steps:
as §1

In assay [8] the test system is Setaria faberi (SETFA). Description: Pre-emergence herbicidal glasshouse test. An outline of the steps: as §1
For assay [9], the system named is Amaranthus retoflexus (AMARE). Put plainly: Pre-emergence herbicidal glasshouse test. An outline of the steps:
as §1

Assay [10] concerns Echinochloa crus-galli (ECHCG). Put plainly: Pre-emergence herbicidal glasshouse test. An outline of the steps: as §1

This note sets out measurements from US20250243189A1, “HERBICIDAL IMIDAZOLE-CONTAINING COMPOUNDS” (SYNGENTA CROP PROTECTION AG, priority 2022, published 2025).

With `FC(F)(F)c1cn(Cc2ncc(Cl)cn2)c(-c2ccsc2)n1` [Compound 1.030], the “percentage damage caused to the plant, AMAPA” value in the assay with AMAPA [1] and with AMAPA [6] was 5 (5=81-100%) throughout. Further, the “percentage damage caused to the plant, IPOHE” value in the assay on IPOHE [2] and with IPOHE [7] was 4 (4=61-80%) throughout. Further, the “percentage damage caused to the plant, SETFA” value with Setaria faberi (SETFA) [3] and in the assay with Setaria faberi (SETFA) [8] was 5 (5=81-100%) each time. Further, the “percentage damage caused to the plant, AMARE” value in [4] and in [9] was 5 (5=81-100%) each time. Also, the “percentage damage caused to the plant, ECHCG” value in assay [5] is on record as 4 (4=61-80%); in [10], 5 (5=81-100%).
Consider `FC(F)(F)c1cn(Cc2ncc(Cl)cn2)c(-c2ccns2)n1` [Compound 1.033], for which the “percentage damage caused to the plant, AMAPA” value in the assay with AMAPA [1] and in the assay with AMAPA [6] was 5 (5=81-100%) throughout. In addition, the “percentage damage caused to the plant, IPOHE” value with IPOHE [2] was 4 (4=61-80%); in the assay on IPOHE [7], 5 (5=81-100%). The “percentage damage caused to the plant, SETFA” value in the assay on Setaria faberi (SETFA) [3] and with Setaria faberi (SETFA) [8] was 5 (5=81-100%) each time. Further, the “percentage damage caused to the plant, AMARE” value in assay [4] and in assay [9] was 5 (5=81-100%) each time. Also, the “percentage damage caused to the plant, ECHCG” value in assay [5] and in [10] was 5 (5=81-100%) throughout.
Consider `FC(F)(F)c1cn(Cc2ncc(Cl)cn2)c(-c2cccs2)n1` [Compound 1.034], for which the “percentage damage caused to the plant, AMAPA” value is 4 (4=61-80%) in the assay on AMAPA [1] and 5 (5=81-100%) in the assay with AMAPA [6]. Besides, the “percentage damage caused to the plant, IPOHE” value with IPOHE [2] is 4 (4=61-80%); in the assay on IPOHE [7], 2 (2=21-40%). The “percentage damage caused to the plant, SETFA” value in the assay with Setaria faberi (SETFA) [3] and with Setaria faberi (SETFA) [8] was 2 (2=21-40%) throughout. In addition, the “percentage damage caused to the plant, AMARE” value is 4 (4=61-80%) in [4] and 5 (5=81-100%) in assay [9]. The “percentage damage caused to the plant, ECHCG” value in assay [5] and in assay [10] was 2 (2=21-40%) each time.
Turning to `Cc1sccc1-c1nc(C(F)(F)F)cn1Cc1ncc(Cl)cn1` [Compound 1.035], the “percentage damage caused to the plant, AMAPA” value with AMAPA [1] is 4 (4=61-80%); in the assay with AMAPA [6], 5 (5=81-100%). In addition, the “percentage damage caused to the plant, IPOHE” value in the assay with IPOHE [2] and in the assay with IPOHE [7] was 4 (4=61-80%) in each case. Moreover, the “percentage damage caused to the plant, SETFA” value in the assay on Setaria faberi (SETFA) [3] and in the assay on Setaria faberi (SETFA) [8] was 5 (5=81-100%) throughout. Besides, the “percentage damage caused to the plant, AMARE” value in assay [4] and in [9] was 5 (5=81-100%) in each case. The “percentage damage caused to the plant, ECHCG” value in assay [5] and in assay [10] was 5 (5=81-100%) throughout.
Turning to `FC(F)(F)c1cn(Cc2ncc(Cl)cn2)c(-c2cc(Cl)sc2Cl)n1` [Compound 1.037], the “percentage damage caused to the plant, AMAPA” value with AMAPA [1] is 3 (3=41-60%); in the assay with AMAPA [6], 5 (5=81-100%). In addition, the figures for the “percentage damage caused to the plant, IPOHE” value in the assay on IPOHE [2] and in the assay with IPOHE [7] were 3 (3=41-60%) and 5 (5=81-100%), respectively. Besides, the entries for the “percentage damage caused to the plant, SETFA” value in the assay on Setaria faberi (SETFA) [3] and with Setaria faberi (SETFA) [8] were 3 (3=41-60%) and 4 (4=61-80%), respectively. Besides, the “percentage damage caused to the plant, AMARE” value in assay [4] was 4 (4=61-80%); in assay [9] it was 5 (5=81-100%). Besides, the “percentage damage caused to the plant, ECHCG” value was 3 (3=41-60%) in assay [5] and 4 (4=61-80%) in [10].
Turning to `FC(F)(F)c1cn(Cc2ncc(Cl)cn2)c(-n2cc(Cl)cn2)n1` [Compound 1.065, 5-chloro-2-[[2-(4-chloropyrazol-1-yl)-4-(trifluoromethyl)imidazol-1-yl]methyl]pyrimidine], the “percentage damage caused to the plant, AMAPA” value is 4 (4=61-80%) in the assay with AMAPA [1] and 5 (5=81-100%) with AMAPA [6]. Moreover, the figures for the “percentage damage caused to the plant, IPOHE” value with IPOHE [2] and in the assay on IPOHE [7] were 3 (3=41-60%) and 4 (4=61-80%), respectively. Also, the “percentage damage caused to the plant, SETFA” value in the assay with Setaria faberi (SETFA) [3] and with Setaria faberi (SETFA) [8] was 2 (2=21-40%) throughout. The “percentage damage caused to the plant, AMARE” value is recorded as 4 (4=61-80%) in assay [4] and 5 (5=81-100%) in assay [9]. For the same molecule, the “percentage damage caused to the plant, ECHCG” value in assay [5] was 2 (2=21-40%); in [10] it was 1 (1=0-20%).
For `FC(F)(F)c1cn(Cc2ncc(Cl)cn2)c(-n2ccc(Cl)n2)n1` [Compound 1.066], the entries for the “percentage damage caused to the plant, AMAPA” value in the assay on AMAPA [1] and in the assay on AMAPA [6] were 3 (3=41-60%) and 5 (5=81-100%), respectively. In addition, the “percentage damage caused to the plant, IPOHE” value with IPOHE [2] and with IPOHE [7] was 4 (4=61-80%) throughout. For the same molecule, the “percentage damage caused to the plant, SETFA” value is on record as 1 (1=0-20%) in the assay on Setaria faberi (SETFA) [3] and 2 (2=21-40%) in the assay with Setaria faberi (SETFA) [8]. For the same molecule, the “percentage damage caused to the plant, AMARE” value is given as 4 (4=61-80%) in [4] and 5 (5=81-100%) in assay [9]. Further, the “percentage damage caused to the plant, ECHCG” value in assay [5] and in assay [10] was 1 (1=0-20%) throughout.
In the case of `Fc1cnn(-c2nc(C(F)(F)F)cn2Cc2ncc(Cl)cn2)c1` [Compound 1.067], the “percentage damage caused to the plant, AMAPA” value in the assay on AMAPA [1] is listed as 3 (3=41-60%); in the assay with AMAPA [6], 4 (4=61-80%). The “percentage damage caused to the plant, IPOHE” value in the assay on IPOHE [2] and in the assay on IPOHE [7] was 2 (2=21-40%) throughout. The “percentage damage caused to the plant, SETFA” value in the assay on Setaria faberi (SETFA) [3] and in the assay on Setaria faberi (SETFA) [8] was 1 (1=0-20%) each time. Moreover, the “percentage damage caused to the plant, AMARE” value is on record as 4 (4=61-80%) in assay [4] and 5 (5=81-100%) in assay [9]. Moreover, the “percentage damage caused to the plant, ECHCG” value in [5] and in assay [10] was 1 (1=0-20%) in each case.
As for `Cc1ccc(-c2nc(C(F)F)cn2Cc2ncc(Cl)cn2)s1` [Compound 1.068], the figures for the “percentage damage caused to the plant, AMAPA” value with AMAPA [1] and in the assay on AMAPA [6] were 2 (2=21-40%) and 5 (5=81-100%), respectively. Also, the “percentage damage caused to the plant, IPOHE” value is 1 (1=0-20%) in the assay with IPOHE [2] and 4 (4=61-80%) in the assay with IPOHE [7]. For the same molecule, the “percentage damage caused to the plant, SETFA” value in the assay with Setaria faberi (SETFA) [3] is 1 (1=0-20%); in the assay on Setaria faberi (SETFA) [8] it was 4 (4=61-80%). In addition, the “percentage damage caused to the plant, AMARE” value in [4] is reported as 3 (3=41-60%); in assay [9], 5 (5=81-100%). The “percentage damage caused to the plant, ECHCG” value was 1 (1=0-20%) in assay [5] and 3 (3=41-60%) in assay [10].
